{
  "source": "PubChem BioAssay (NCI)",
  "assay_in_all_cases": "NCI tumour cell line growth inhibition, 48 h",
  "key": {"[1]": {"system": "A498 renal"}, "[2]": {"system": "A549 NSCLC"}, "[3]": {"system": "CAKI-1 renal"}, "[4]": {"system": "CCRF-CEM leukemia"}, "[5]": {"system": "COLO 205 colon"}, "[6]": {"system": "DLD-1 colon"}, "[7]": {"system": "DMS 114 small cell lung"}, "[8]": {"system": "DMS 273 small cell lung"}, "[9]": {"system": "EKVX NSCLC"}, "[10]": {"system": "HCC-2998 colon"}, "[11]": {"system": "HCT-116 colon"}, "[12]": {"system": "HCT-15 colon"}, "[13]": {"system": "HL-60(TB) leukemia"}, "[14]": {"system": "HOP-18 NSCLC"}, "[15]": {"system": "HOP-62 NSCLC"}, "[16]": {"system": "HOP-92 NSCLC"}, "[17]": {"system": "HT29 colon"}, "[18]": {"system": "IGROV1 ovarian"}, "[19]": {"system": "K-562 leukemia"}, "[20]": {"system": "KM12 colon"}, "[21]": {"system": "KM20L2 colon"}, "[22]": {"system": "LOX IMVI melanoma"}, "[23]": {"system": "M19-MEL melanoma"}, "[24]": {"system": "MALME-3M melanoma"}, "[25]": {"system": "MCF7 breast"}, "[26]": {"system": "MOLT-4 leukemia"}, "[27]": {"system": "NCI-H226 lung"}, "[28]": {"system": "NCI-H23 lung"}, "[29]": {"system": "NCI-H460 lung"}, "[30]": {"system": "NCI-H522 lung"}, "[31]": {"system": "NCI/ADR-RES ovarian"}, "[32]": {"system": "OVCAR-3 ovarian"}, "[33]": {"system": "OVCAR-4 ovarian"}, "[34]": {"system": "OVCAR-5 ovarian"}, "[35]": {"system": "OVCAR-8 ovarian"}, "[36]": {"system": "P388/ADR leukemia"}, "[37]": {"system": "RPMI-8226 leukemia"}, "[38]": {"system": "SF-268 CNS"}, "[39]": {"system": "SF-295 CNS"}, "[40]": {"system": "SF-539 CNS"}, "[41]": {"system": "SK-MEL-2 melanoma"}, "[42]": {"system": "SK-MEL-28 melanoma"}, "[43]": {"system": "SK-MEL-5 melanoma"}, "[44]": {"system": "SK-OV-3 ovarian"}, "[45]": {"system": "SN12C renal"}, "[46]": {"system": "SN12K1 renal"}, "[47]": {"system": "SNB-19 CNS"}, "[48]": {"system": "SNB-75 CNS"}, "[49]": {"system": "SNB-78 CNS"}, "[50]": {"system": "SW-620 colon"}, "[51]": {"system": "U251 CNS"}, "[52]": {"system": "UACC-257 melanoma"}, "[53]": {"system": "UACC-62 melanoma"}, "[54]": {"system": "UO-31 renal"}, "[55]": {"system": "XF 498 CNS"}},
  "note": "“And” between values parts separate entries of the source, which are not always exact repeats. Equal values may be shown once.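 These data come from cells grown in 96-well plates and exposed to compound for 48 hours at five concentrations. GI50 = concentration required for 50% inhibition of growth. TGI denotes the concentration required for complete inhibition of growth.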",
  "data": [
    {"smiles": "CC/C=C\\C/C=C\\C/C=C\\CCCCCCCC(=O)OC", "values": [
      {"measurement": "TGI", "setting": "[1]", "result": "> 100", "unit": "µM"},
      {"measurement": "TGI", "setting": "[2]", "result": "> 100", "unit": "µM"},
      {"measurement": "TGI", "setting": "[3]", "result": "> 100", "unit": "µM"},
      {"measurement": "GI50", "setting": "[4]", "result": 3.72, "unit": "µM"},
      {"measurement": "TGI", "setting": "[4]", "result": "> 100", "unit": "µM"},
      {"measurement": "GI50", "setting": "[5]", "result": "> 100", "unit": "µM"},
      {"measurement": "TGI", "setting": "[5]", "result": "> 100", "unit": "µM"},
      {"measurement": "TGI", "setting": "[6]", "result": "> 100", "unit": "µM"},
      {"measurement": "GI50", "setting": "[7]", "result": 83.3, "unit": "µM"},
      {"measurement": "TGI", "setting": "[7]", "result": "> 100", "unit": "µM"},
      {"measurement": "TGI", "setting": "[8]", "result": "> 100", "unit": "µM"},
      {"measurement": "TGI", "setting": "[9]", "result": "> 100", "unit": "µM"},
      {"measurement": "TGI", "setting": "[10]", "result": "> 100", "unit": "µM"},
      {"measurement": "GI50", "setting": "[11]", "result": 70.6, "unit": "µM"},
      {"measurement": "TGI", "setting": "[11]", "result": "> 100", "unit": "µM"},
      {"measurement": "TGI", "setting": "[12]", "result": "> 100", "unit": "µM"},
      {"measurement": "TGI", "setting": "[13]", "result": 49.9, "unit": "µM"},
      {"measurement": "TGI", "setting": "[14]", "result": "> 100", "unit": "µM"},
      {"measurement": "TGI", "setting": "[15]", "result": "> 100", "unit": "µM"},
      {"measurement": "TGI", "setting": "[16]", "result": "> 100", "unit": "µM"},
      {"measurement": "TGI", "setting": "[17]", "result": "> 100", "unit": "µM"},
      {"measurement": "TGI", "setting": "[18]", "result": "> 100", "unit": "µM"},
      {"measurement": "GI50", "setting": "[19]", "result": 39.4, "unit": "µM"},
      {"measurement": "TGI", "setting": "[19]", "result": "> 100", "unit": "µM"},
      {"measurement": "TGI", "setting": "[20]", "result": "> 100", "unit": "µM"},
      {"measurement": "GI50", "setting": "[21]", "result": "> 100", "unit": "µM"},
      {"measurement": "TGI", "setting": "[21]", "result": "> 100", "unit": "µM"},
      {"measurement": "GI50", "setting": "[22]", "result": 25, "unit": "µM"},
      {"measurement": "TGI", "setting": "[22]", "result": "68.4 µM and 38.3 µM"},
      {"measurement": "GI50", "setting": "[23]", "result": 45.1, "unit": "µM"},
      {"measurement": "TGI", "setting": "[23]", "result": "> 100", "unit": "µM"},
      {"measurement": "TGI", "setting": "[24]", "result": "> 100", "unit": "µM"},
      {"measurement": "GI50", "setting": "[25]", "result": 37.8, "unit": "µM"},
      {"measurement": "TGI", "setting": "[25]", "result": "> 100", "unit": "µM"},
      {"measurement": "TGI", "setting": "[26]", "result": "> 100", "unit": "µM"},
      {"measurement": "TGI", "setting": "[27]", "result": "> 100", "unit": "µM"},
      {"measurement": "TGI", "setting": "[28]", "result": "> 100", "unit": "µM"},
      {"measurement": "TGI", "setting": "[29]", "result": "> 100", "unit": "µM"},
      {"measurement": "TGI", "setting": "[30]", "result": "> 100", "unit": "µM"},
      {"measurement": "TGI", "setting": "[31]", "result": "> 100", "unit": "µM"},
      {"measurement": "TGI", "setting": "[32]", "result": "> 100", "unit": "µM"},
      {"measurement": "TGI", "setting": "[33]", "result": "> 100", "unit": "µM"},
      {"measurement": "TGI", "setting": "[34]", "result": "> 100", "unit": "µM"},
      {"measurement": "GI50", "setting": "[35]", "result": 0.0205, "unit": "µM"},
      {"measurement": "TGI", "setting": "[35]", "result": "11.8 µM and > 100 µM"},
      {"measurement": "TGI", "setting": "[36]", "result": 66.3, "unit": "µM"},
      {"measurement": "GI50", "setting": "[37]", "result": 19.8, "unit": "µM"},
      {"measurement": "TGI", "setting": "[37]", "result": "69.9 µM and > 100 µM"},
      {"measurement": "TGI", "setting": "[38]", "result": "> 100", "unit": "µM"},
      {"measurement": "TGI", "setting": "[39]", "result": "> 100", "unit": "µM"},
      {"measurement": "TGI", "setting": "[40]", "result": "> 100", "unit": "µM"},
      {"measurement": "TGI", "setting": "[41]", "result": "> 100", "unit": "µM"},
      {"measurement": "TGI", "setting": "[42]", "result": "> 100", "unit": "µM"},
      {"measurement": "TGI", "setting": "[43]", "result": "> 100", "unit": "µM"},
      {"measurement": "TGI", "setting": "[44]", "result": "> 100", "unit": "µM"},
      {"measurement": "TGI", "setting": "[45]", "result": "> 100", "unit": "µM"},
      {"measurement": "TGI", "setting": "[46]", "result": "> 100", "unit": "µM"},
      {"measurement": "TGI", "setting": "[47]", "result": "> 100", "unit": "µM"},
      {"measurement": "GI50", "setting": "[48]", "result": "> 100", "unit": "µM"},
      {"measurement": "TGI", "setting": "[48]", "result": "> 100", "unit": "µM"},
      {"measurement": "GI50", "setting": "[49]", "result": "> 100", "unit": "µM"},
      {"measurement": "TGI", "setting": "[49]", "result": "> 100", "unit": "µM"},
      {"measurement": "TGI", "setting": "[50]", "result": "> 100", "unit": "µM"},
      {"measurement": "TGI", "setting": "[51]", "result": "> 100", "unit": "µM"},
      {"measurement": "TGI", "setting": "[52]", "result": "> 100", "unit": "µM"},
      {"measurement": "TGI", "setting": "[53]", "result": "> 100", "unit": "µM"},
      {"measurement": "TGI", "setting": "[54]", "result": "> 100", "unit": "µM"},
      {"measurement": "TGI", "setting": "[55]", "result": "> 100", "unit": "µM"}
    ]}
  ]
}
